“Also recorded” adds a separate entry of the source.
Legend:
[1] = tested on: F/V cells (angiogenic endothelial cells of foetal bovine aorta); assay: Proliferation test on F/V cells; format: cell-based; settings: for sensitivity of F/V cells compared with F/0 cells to anti-angiogenic agent: F/V versus F/0 cells, seeded at low density (5000), FIG. 4
Protocol: (§1) FIG. 5A relates in particular to the action of the type 3 antibodies on the proliferation of the F/V cells of angiogenic phenotype. FIG. 5B relates to the action of the type 3 antibodies on the proliferation of the F/O non-angiogenic cells. The test carried out is a proliferation test as described in the examples. The cells are cultured in DMEM supplemented with 5% newborn calf serum to which is added either no angiogenic factor (condition 0), or 2 ng/ml VEGF (condition VEGF), or 2 ng/ml FGF-2 (condition FGF-2). The antibody is added at the same time as the angiogenic factors, at variable concentrations (0, 1, 3 or 7 μg/ml).
(§2) The test carried out is a proliferation test as described in the examples. The cells are cultured in DMEM supplemented with 5% newborn calf serum. The antibody is added at the same time as the angiogenic factors, at variable concentrations (0, 50 or 100 μg/ml).
(§3) 12-well plates are seeded at a low density (5000 to 10,000 cells/well), in DMEM medium with 8% serum. After 24 hours, the proliferation of the cells is stimulated by the addition of a range of growth factor, anti-angiogenic medicaments (methoxyestradiol, fumagillin, SU5416 targeted on VEGF-R2—Plouët et al., 2001) or antibodies of the present invention. The cells are restimulated after 48 hours and then after a total of five days in culture the cells are trypsinated and counted with a Coulter counter.
The F/0 and F/V cells are seeded at a low density (5000) as indicated and three drugs are inoculated separately, 2 of which are of unknown mechanism (Methoxyestradiol-ME-2 and fumagillin—FUMA) and 1 interfering with VEGF-R2 (SU 5416) inhibiting kinase activity.

[2] = tested on: F/0 cells (non-angiogenic endothelial cells of foetal bovine aorta); assay: Proliferation test on F/0 cells; format: cell-based
Protocol: as §1, §2
as §3, with “counter. […]” for “counter.”

Compound | sensitivity of F/V cells compared with F/0 cells to anti-angiogenic agent [1] | proliferation under the action of VEGF (in words) [2] | ED 50 of mitogenic action ([1]; F/V cells) [ng/mL]
Cc1cc(C)c(/C=C2\C(=O)Nc3ccccc32)[nH]1 [SU 5416] | much more sensitive |  | 
CO[C@@H]1[C@H](OC(=O)/C=C/C=C/C=C/C=C/C(=O)O)CC[C@]2(CO2)[C@H]1[C@@]1(C)O[C@@H]1CC=C(C)C [fumagillin] | identically sensitive; also recorded: equally sensitive |  | 
COc1cc2c(cc1O)CC[C@@H]1[C@@H]2CC[C@]2(C)[C@@H](O)CC[C@@H]12 [methoxyestradiol] | identically sensitive; also recorded: equally sensitive |  | 
VEGF |  | do not proliferate | 0.3

— patent publication US20060263827A1, “Novel endothelial cells, antibodies directed against said cells and use thereof, in particular for screening angiogenesis inhibiting substances” (priority 2002, published 2006)
